Test results: the supplement of paper PMC10307832

Legend:
Assay in all cases: relative viability (nuclei count vs DMSO), 5 days (fraction); higher = more cells survive
NCI-H1915 = test system: NCI-H1915
Outline: (§1)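 The day after seeding in 1536-well plates, lung cancer cell lines were treated by pin tool with a single drug, or with a fixed anchor-drug dose together with five library-drug doses (not always all listed) in √10 steps. After 5 days, a combined fix-and-stain solution (final 0.05% Triton X-100, 1% formaldehyde, 1 ug/ml Hoechst) was added. Nuclei counted on 4× images gave relative viability as treated counts over vehicle counts, reported as the median of duplicate plates.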

NCI-H727 = test system: NCI-H727
Outline: as §1

NCI-H1755 = test system: NCI-H1755
Outline: as §1

NCI-H522 = test system: NCI-H522
Outline: as §1

NCI-H1792 = test system: NCI-H1792
Outline: as §1

NCI-H520 = test system: NCI-H520
Outline: as §1

NCI-H460 = test system: NCI-H460
Outline: as §1

NCI-H322M = test system: NCI-H322M
Outline: as §1

PC-14 = test system: PC-14
Outline: as §1

NCI-H1651 = test system: NCI-H1651
Outline: as §1

LCLC-103H = test system: LCLC-103H
Outline: as §1

NCI-H1563 = test system: NCI-H1563
Outline: as §1

NCI-H2347 = test system: NCI-H2347
Outline: as §1

NCI-H441 = test system: NCI-H441
Outline: as §1

NCI-H1355 = test system: NCI-H1355
Outline: as §1

SW 900 = test system: SW 900
Outline: as §1

LXF-289 = test system: LXF-289
Outline: as §1

SK-MES-1 = test system: SK-MES-1
Outline: as §1

NCI-H661 = test system: NCI-H661
Outline: as §1

RERF-LC-KJ = test system: RERF-LC-KJ
Outline: as §1

NCI-H596 = test system: NCI-H596
Outline: as §1

NCI-H3122 = test system: NCI-H3122
Outline: as §1

Work on `O=c1cc(N2CCOCC2)oc2c(-c3cccc4c3sc3ccccc34)cccc12` + CCNC(=O)c1noc(-c2cc(C(C)C)c(O)cc2O)c1-c1ccc(CN2CCOCC2)cc1 [Luminespib] (partner 0.01 µM) yielded a relative viability (NCI-H1915; first compound 0.01 µM) of 0.875, a relative viability (NCI-H1915; first compound 0.03162 µM) of 0.831 and a relative viability (NCI-H1915; first compound 0.1 µM) of 0.807. The relative viability (NCI-H1915; first compound 0.3162 µM) was 0.791, the relative viability (NCI-H1915; first compound 1 µM) was 0.855 and the relative viability (NCI-H727; first compound 0.01 µM) was 0.324. For the same compound, the relative viability (NCI-H727; first compound 0.03162 µM) was 0.399, the relative viability (NCI-H727; first compound 0.1 µM) was 0.375 and the relative viability (NCI-H727; first compound 0.3162 µM) was 0.356. For the same compound, the relative viability (NCI-H727; first compound 1 µM) was 0.416, the relative viability (NCI-H1755; first compound 0.01 µM) was 0.501 and the relative viability (NCI-H1755; first compound 0.03162 µM) was 0.265. For the same compound, the relative viability (NCI-H1755; first compound 0.1 µM) was 0.496, the relative viability (NCI-H1755; first compound 0.3162 µM) was 0.419 and the relative viability (NCI-H1755; first compound 1 µM) was 0.563. The relative viability (NCI-H522; first compound 0.01 µM) was 1.23, the relative viability (NCI-H522; first compound 0.03162 µM) was 1.37 and the relative viability (NCI-H522; first compound 0.1 µM) was 0.915. The relative viability (NCI-H522; first compound 0.3162 µM) was 1.06, the relative viability (NCI-H522; first compound 1 µM) was 1.14 and the relative viability (NCI-H1792; first compound 0.01 µM) was 0.502. For the same compound, the relative viability (NCI-H1792; first compound 0.03162 µM) was 0.359, the relative viability (NCI-H1792; first compound 0.1 µM) was 0.576 and the relative viability (NCI-H1792; first compound 0.3162 µM) was 0.497. The relative viability (NCI-H1792; first compound 1 µM) was 0.531, the relative viability (NCI-H520; first compound 0.01 µM) was 0.213 and the relative viability (NCI-H520; first compound 0.03162 µM) was 0.285. For the same compound, the relative viability (NCI-H520; first compound 0.1 µM) was 0.24, the relative viability (NCI-H520; first compound 0.3162 µM) was 0.209 and the relative viability (NCI-H520; first compound 1 µM) was 0.249. The relative viability (NCI-H460; first compound 0.01 µM) was 0.037, the relative viability (NCI-H460; first compound 0.03162 µM) was 0.0402 and the relative viability (NCI-H460; first compound 0.1 µM) was 0.0368. The relative viability (NCI-H460; first compound 0.3162 µM) was 0.035, the relative viability (NCI-H460; first compound 1 µM) was 0.0452 and the relative viability (NCI-H322M; first compound 0.01 µM) was 0.901. The relative viability (NCI-H322M; first compound 0.03162 µM) was 0.864, the relative viability (NCI-H322M; first compound 0.1 µM) was 0.889 and the relative viability (NCI-H322M; first compound 0.3162 µM) was 0.839. For the same compound, the relative viability (NCI-H322M; first compound 1 µM) was 0.756, the relative viability (PC-14; first compound 0.03162 µM) was 0.151 and the relative viability (PC-14; first compound 0.3162 µM) was 0.197. It also gave a relative viability (PC-14; first compound 1 µM) of 0.135, a relative viability (NCI-H1651; first compound 0.01 µM) of 0.777 and a relative viability (NCI-H1651; first compound 0.03162 µM) of 0.736. For the same compound, the relative viability (NCI-H1651; first compound 0.1 µM) was 0.824, the relative viability (NCI-H1651; first compound 0.3162 µM) was 0.712 and the relative viability (NCI-H1651; first compound 1 µM) was 0.807. It also gave a relative viability (LCLC-103H; first compound 0.01 µM) of 0.912, a relative viability (LCLC-103H; first compound 0.03162 µM) of 1.01 and a relative viability (LCLC-103H; first compound 0.1 µM) of 1.02. For the same compound, the relative viability (LCLC-103H; first compound 0.3162 µM) was 0.898, the relative viability (LCLC-103H; first compound 1 µM) was 0.925 and the relative viability (NCI-H1563; first compound 0.01 µM) was 0.519. It also gave a relative viability (NCI-H1563; first compound 0.03162 µM) of 0.552, a relative viability (NCI-H1563; first compound 0.1 µM) of 0.515 and a relative viability (NCI-H1563; first compound 0.3162 µM) of 0.558. The relative viability (NCI-H1563; first compound 1 µM) was 0.544, the relative viability (NCI-H2347; first compound 0.01 µM) was 0.571 and the relative viability (NCI-H2347; first compound 0.03162 µM) was 0.383. For the same compound, the relative viability (NCI-H2347; first compound 0.1 µM) was 0.641, the relative viability (NCI-H2347; first compound 0.3162 µM) was 0.409 and the relative viability (NCI-H2347; first compound 1 µM) was 0.323. For the same compound, the relative viability (NCI-H441; first compound 0.01 µM) was 0.334, the relative viability (NCI-H441; first compound 0.03162 µM) was 0.406 and the relative viability (NCI-H441; first compound 0.1 µM) was 0.357. The relative viability (NCI-H441; first compound 0.3162 µM) was 0.417, the relative viability (NCI-H441; first compound 1 µM) was 0.454 and the relative viability (NCI-H1355; first compound 0.01 µM) was 0.815. For the same compound, the relative viability (NCI-H1355; first compound 0.03162 µM) was 0.708, the relative viability (NCI-H1355; first compound 0.1 µM) was 0.669 and the relative viability (NCI-H1355; first compound 0.3162 µM) was 0.728. For the same compound, the relative viability (NCI-H1355; first compound 1 µM) was 0.688, the relative viability (SW 900; first compound 0.01 µM) was 0.203 and the relative viability (SW 900; first compound 0.03162 µM) was 0.186. For the same compound, the relative viability (SW 900; first compound 0.1 µM) was 0.173, the relative viability (SW 900; first compound 0.3162 µM) was 0.196 and the relative viability (SW 900; first compound 1 µM) was 0.176. The relative viability (LXF-289; first compound 0.01 µM) was 0.646, the relative viability (LXF-289; first compound 0.03162 µM) was 0.657 and the relative viability (LXF-289; first compound 0.1 µM) was 0.773. It also gave a relative viability (LXF-289; first compound 0.3162 µM) of 0.752, a relative viability (LXF-289; first compound 1 µM) of 0.714 and a relative viability (SK-MES-1; first compound 0.01 µM) of 0.712. It also gave a relative viability (SK-MES-1; first compound 0.03162 µM) of 0.767, a relative viability (SK-MES-1; first compound 0.1 µM) of 0.736 and a relative viability (SK-MES-1; first compound 0.3162 µM) of 0.661. The relative viability (SK-MES-1; first compound 1 µM) was 0.741, the relative viability (NCI-H661; first compound 0.01 µM) was 0.86 and the relative viability (NCI-H661; first compound 0.03162 µM) was 0.952. The relative viability (NCI-H661; first compound 0.1 µM) was 0.948, the relative viability (NCI-H661; first compound 0.3162 µM) was 0.943 and the relative viability (NCI-H661; first compound 1 µM) was 0.888. The relative viability (RERF-LC-KJ; first compound 0.01 µM) was 1.31, the relative viability (RERF-LC-KJ; first compound 0.03162 µM) was 1.22 and the relative viability (RERF-LC-KJ; first compound 0.1 µM) was 1.48. It also gave a relative viability (RERF-LC-KJ; first compound 0.3162 µM) of 1.07, a relative viability (RERF-LC-KJ; first compound 1 µM) of 1.21 and a relative viability (NCI-H596; first compound 0.01 µM) of 1.05. The relative viability (NCI-H596; first compound 0.03162 µM) was 0.917, the relative viability (NCI-H596; first compound 0.1 µM) was 0.877 and the relative viability (NCI-H596; first compound 0.3162 µM) was 1.14. The relative viability (NCI-H596; first compound 1 µM) was 1.01, the relative viability (NCI-H3122; first compound 0.01 µM) was 0.073 and the relative viability (NCI-H3122; first compound 0.03162 µM) was 0.101. For the same compound, the relative viability (NCI-H3122; first compound 0.1 µM) was 0.0916, the relative viability (NCI-H3122; first compound 0.3162 µM) was 0.0864 and the relative viability (NCI-H3122; first compound 1 µM) was 0.0779.
